Here are results for 15 molecules from patent US20090304692A1, “TRIAZINE COMPOUNDS AS PI3 KINASE AND MTOR INHIBITORS” (Wyeth, priority 2008, published 2009).

As usually defined, the IC50 is the midpoint of a concentration-inhibition curve.

Where two headings read alike, the source gives them in different places.

Experiment [1] concerns the target Human mTOR (FLAG-TOR) (Homo sapiens, UniProt P42345). Nature of the experiment: mTOR kinase assay (DELFIA format, purified enzyme). It is filed as biochemical. As to conditions: read-out: IC50 mTOR.
Experiment [2] has as its system human breast MDA-MB-361 tumor cell line. Nature of the experiment: In vitro cell culture growth assay (MTS), MDA-MB-361. As to conditions: Homo sapiens, MTS cell growth assay, three days after drug treatment, MDA-MB-361 cells, read-out: IC50 MDA-MB-361. It is filed as cell-based. For orientation: Formazan colour is commonly taken as a measure of viable cells.
Experiment [3] has as its system human prostate PC3-mm2 tumor cell line. Nature of the experiment: In vitro cell culture growth assay (MTS), PC3-mm2. The conditions noted are these: Homo sapiens, PC3MM2, 72 h, MTS cell growth assay, three days after drug treatment, PC3-mm2 cells; read-out: IC50 PC3-mm2. Type of experiment: cell-based.
Experiment [4] deals with PI3K-α (Homo sapiens, UniProt P42336). Nature of the experiment: PI3K-alpha fluorescence polarization assay. As to conditions: read-out: IC50 PI3Kα. Background: Fluorescence polarisation rises when a labelled molecule tumbles more slowly, as on binding a larger partner.
For experiment [5], the target named is PI3K-γ (Homo sapiens, UniProt P48736). Nature of the experiment: PI3K-gamma fluorescence polarization assay. As to conditions: read-out: IC50 PI3Kγ.
Sequence of PI3K-γ (P48736 whole entry, species assumed): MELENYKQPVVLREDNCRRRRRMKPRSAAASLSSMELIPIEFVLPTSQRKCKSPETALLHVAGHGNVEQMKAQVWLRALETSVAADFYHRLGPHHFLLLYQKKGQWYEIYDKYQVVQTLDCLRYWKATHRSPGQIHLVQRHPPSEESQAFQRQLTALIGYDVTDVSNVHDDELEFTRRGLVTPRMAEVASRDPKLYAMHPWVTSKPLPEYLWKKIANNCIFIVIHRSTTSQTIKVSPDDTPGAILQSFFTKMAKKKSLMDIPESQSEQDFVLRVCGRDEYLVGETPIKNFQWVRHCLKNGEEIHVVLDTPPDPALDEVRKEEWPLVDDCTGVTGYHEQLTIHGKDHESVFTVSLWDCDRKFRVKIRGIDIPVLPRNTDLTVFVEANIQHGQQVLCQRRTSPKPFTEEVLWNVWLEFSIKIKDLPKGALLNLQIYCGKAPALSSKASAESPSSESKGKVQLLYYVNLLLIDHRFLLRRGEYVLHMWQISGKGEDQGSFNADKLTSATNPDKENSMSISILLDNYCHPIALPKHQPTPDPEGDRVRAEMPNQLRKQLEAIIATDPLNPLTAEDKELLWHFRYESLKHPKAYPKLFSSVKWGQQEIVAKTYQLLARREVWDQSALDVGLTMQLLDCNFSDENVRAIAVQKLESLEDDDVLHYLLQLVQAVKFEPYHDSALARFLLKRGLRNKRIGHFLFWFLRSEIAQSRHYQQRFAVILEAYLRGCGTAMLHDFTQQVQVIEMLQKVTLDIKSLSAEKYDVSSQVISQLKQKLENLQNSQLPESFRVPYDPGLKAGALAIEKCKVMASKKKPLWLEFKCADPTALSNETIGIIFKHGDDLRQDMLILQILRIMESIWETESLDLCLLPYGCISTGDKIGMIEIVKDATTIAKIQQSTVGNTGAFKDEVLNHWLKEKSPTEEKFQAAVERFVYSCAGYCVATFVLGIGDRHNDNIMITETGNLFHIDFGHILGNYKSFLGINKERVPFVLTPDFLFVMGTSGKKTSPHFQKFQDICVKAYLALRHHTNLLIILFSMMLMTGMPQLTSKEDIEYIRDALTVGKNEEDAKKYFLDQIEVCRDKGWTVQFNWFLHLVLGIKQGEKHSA

Sequence of PI3K-α (P42336 whole entry, species assumed): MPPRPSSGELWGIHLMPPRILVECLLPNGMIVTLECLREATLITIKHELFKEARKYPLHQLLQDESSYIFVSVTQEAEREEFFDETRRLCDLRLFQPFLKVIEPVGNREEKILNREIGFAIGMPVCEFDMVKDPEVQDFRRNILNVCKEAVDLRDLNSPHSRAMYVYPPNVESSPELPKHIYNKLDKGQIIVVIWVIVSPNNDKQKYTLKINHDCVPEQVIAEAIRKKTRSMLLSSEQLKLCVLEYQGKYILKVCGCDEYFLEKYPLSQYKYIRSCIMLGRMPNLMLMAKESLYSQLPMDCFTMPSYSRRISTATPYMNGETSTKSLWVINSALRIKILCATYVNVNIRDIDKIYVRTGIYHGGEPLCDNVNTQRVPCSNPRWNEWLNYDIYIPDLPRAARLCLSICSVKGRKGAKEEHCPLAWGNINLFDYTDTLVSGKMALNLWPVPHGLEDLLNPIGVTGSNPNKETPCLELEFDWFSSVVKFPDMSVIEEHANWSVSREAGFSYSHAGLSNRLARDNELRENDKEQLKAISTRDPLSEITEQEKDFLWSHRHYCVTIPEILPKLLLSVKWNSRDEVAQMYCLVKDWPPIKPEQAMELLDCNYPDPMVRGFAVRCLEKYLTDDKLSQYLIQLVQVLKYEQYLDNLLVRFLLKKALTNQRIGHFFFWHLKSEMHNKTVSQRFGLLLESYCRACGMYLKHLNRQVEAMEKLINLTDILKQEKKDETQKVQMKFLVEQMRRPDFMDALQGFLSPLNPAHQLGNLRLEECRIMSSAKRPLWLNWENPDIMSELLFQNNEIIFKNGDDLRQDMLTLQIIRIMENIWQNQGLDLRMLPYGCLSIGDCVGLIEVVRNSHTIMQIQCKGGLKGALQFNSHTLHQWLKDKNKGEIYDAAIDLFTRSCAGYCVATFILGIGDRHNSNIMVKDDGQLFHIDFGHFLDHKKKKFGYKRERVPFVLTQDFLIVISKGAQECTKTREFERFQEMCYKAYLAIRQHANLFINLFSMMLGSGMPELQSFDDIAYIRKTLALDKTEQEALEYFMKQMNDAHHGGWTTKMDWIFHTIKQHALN
Sequence of PI3K-α (P27986 whole entry partner, species assumed): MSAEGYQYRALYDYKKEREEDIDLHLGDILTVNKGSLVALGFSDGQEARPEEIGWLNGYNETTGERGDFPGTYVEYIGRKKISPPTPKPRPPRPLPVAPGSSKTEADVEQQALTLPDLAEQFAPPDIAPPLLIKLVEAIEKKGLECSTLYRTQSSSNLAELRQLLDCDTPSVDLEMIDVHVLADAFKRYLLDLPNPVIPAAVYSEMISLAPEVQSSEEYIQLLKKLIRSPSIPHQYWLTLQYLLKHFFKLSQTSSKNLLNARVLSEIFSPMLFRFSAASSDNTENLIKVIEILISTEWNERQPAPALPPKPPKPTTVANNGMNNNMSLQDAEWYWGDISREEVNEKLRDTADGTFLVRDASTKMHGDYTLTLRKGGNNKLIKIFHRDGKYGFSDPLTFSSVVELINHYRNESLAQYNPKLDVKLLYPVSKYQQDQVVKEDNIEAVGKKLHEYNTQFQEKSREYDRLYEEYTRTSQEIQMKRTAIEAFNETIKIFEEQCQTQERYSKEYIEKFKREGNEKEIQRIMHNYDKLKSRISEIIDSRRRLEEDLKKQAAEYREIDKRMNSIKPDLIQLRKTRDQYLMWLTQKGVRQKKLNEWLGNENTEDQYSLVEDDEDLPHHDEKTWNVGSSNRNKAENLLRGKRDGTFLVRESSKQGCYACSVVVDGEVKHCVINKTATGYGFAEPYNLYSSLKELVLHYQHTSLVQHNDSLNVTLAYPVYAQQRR
Sequence of Human mTOR (FLAG-TOR) (P42345 1360-2549 limits assumed): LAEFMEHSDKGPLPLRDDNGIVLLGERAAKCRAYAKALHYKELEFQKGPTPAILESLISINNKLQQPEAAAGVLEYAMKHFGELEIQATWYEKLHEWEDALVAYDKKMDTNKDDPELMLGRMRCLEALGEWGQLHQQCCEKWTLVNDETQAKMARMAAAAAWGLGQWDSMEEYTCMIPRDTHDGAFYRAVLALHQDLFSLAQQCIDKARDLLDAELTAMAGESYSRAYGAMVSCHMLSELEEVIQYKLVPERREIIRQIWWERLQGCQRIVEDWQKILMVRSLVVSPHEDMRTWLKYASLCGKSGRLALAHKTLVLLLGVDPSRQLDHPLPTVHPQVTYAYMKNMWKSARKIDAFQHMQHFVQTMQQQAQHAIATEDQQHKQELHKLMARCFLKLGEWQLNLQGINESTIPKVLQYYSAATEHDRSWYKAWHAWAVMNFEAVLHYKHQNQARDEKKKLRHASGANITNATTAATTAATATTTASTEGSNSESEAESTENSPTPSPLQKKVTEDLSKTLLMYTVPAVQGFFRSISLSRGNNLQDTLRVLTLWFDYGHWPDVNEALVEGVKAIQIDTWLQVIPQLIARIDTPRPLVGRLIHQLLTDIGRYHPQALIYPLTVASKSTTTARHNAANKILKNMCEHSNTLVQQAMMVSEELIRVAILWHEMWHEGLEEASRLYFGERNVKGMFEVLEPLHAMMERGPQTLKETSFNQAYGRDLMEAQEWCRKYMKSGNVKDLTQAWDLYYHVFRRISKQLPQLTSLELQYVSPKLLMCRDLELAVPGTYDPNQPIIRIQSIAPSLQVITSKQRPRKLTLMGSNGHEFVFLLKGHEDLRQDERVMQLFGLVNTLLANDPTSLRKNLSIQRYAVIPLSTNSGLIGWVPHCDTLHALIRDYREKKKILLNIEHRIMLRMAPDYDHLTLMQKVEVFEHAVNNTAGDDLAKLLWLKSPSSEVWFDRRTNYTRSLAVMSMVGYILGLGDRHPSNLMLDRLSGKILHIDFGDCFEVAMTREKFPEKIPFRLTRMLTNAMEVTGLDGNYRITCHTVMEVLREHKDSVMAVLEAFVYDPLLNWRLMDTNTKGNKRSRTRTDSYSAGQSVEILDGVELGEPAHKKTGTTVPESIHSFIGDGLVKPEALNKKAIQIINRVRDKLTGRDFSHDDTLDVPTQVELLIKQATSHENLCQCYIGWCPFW

Take `O=C(Nc1ccc(C(=O)O)cc1)Nc1ccc(-c2nc(-c3cccs3)nc(N3CCOCC3)n2)cc1` [Example 558, 4-[({4-[4-morpholin-4-yl-6-(2-thienyl)-1,3,5-triazin-2-yl]phenyl}carbamoyl)amino]benzoic acid]: the IC50 in experiment [1] turned out to be 6.1 nM; in experiment [2] (72 h) it was 751 nM; in experiment [3], 939 nM; in experiment [4], 17 nM; in experiment [5], 41 nM.
In the case of `CN1CCN(C(=O)c2ccc(NC(=O)Nc3ccc(-c4nc(-c5cccs5)nc(N5CCOCC5)n4)cc3)cc2)CC1` [Example 559, 1-{4-[(4-methylpiperazin-1-yl)carbonyl]phenyl}-3-{4-[4-morpholin-4-yl-6-(2-thienyl)-1,3,5-triazin-2-yl]phenyl}urea], the IC50 in experiment [1] came to 10.1 nM; in experiment [2] (MDA-MB-361, 72 h) it was 8 nM; in experiment [3], 149 nM; in experiment [4] it was 2 nM; in experiment [5], 13.5 nM.
On to `COCCNC(=O)c1ccc(NC(=O)Nc2ccc(-c3nc(-c4cccs4)nc(N4CCOCC4)n3)cc2)cc1` [Example 561, N-(2-methoxyethyl)-4-[({4-[4-morpholin-4-yl-6-(2-thienyl)-1,3,5-triazin-2-yl]phenyl}carbamoyl)amino]benzamide], for which the IC50 is 6 nM in experiment [1]; 66 nM in experiment [2] (72 h); 218 nM in experiment [3]; 11.5 nM in experiment [4]; 59 nM in experiment [5].
In the case of `CN(C)CCN(C)C(=O)c1ccc(NC(=O)Nc2ccc(-c3nc(-c4cccs4)nc(N4CCOCC4)n3)cc2)cc1` [Example 562, N-[2-(dimethylamino)ethyl]-N-methyl-4-[({4-[4-morpholin-4-yl-6-(2-thienyl)-1,3,5-triazin-2-yl]phenyl}carbamoyl)amino]benzamide], the IC50 in experiment [1] was found to be 4 nM; in experiment [2] (72 h) it was 3 nM; in experiment [3], 93 nM; in experiment [4] it was 1 nM; in experiment [5] it was 10.5 nM.
On the same counts, the results for `CN(C)CCNC(=O)c1ccc(NC(=O)Nc2ccc(-c3nc(-c4cccs4)nc(N4CCOCC4)n3)cc2)cc1` [Example 563, N-[2-(dimethylamino)ethyl]-4-[({4-[4-morpholin-4-yl-6-(2-thienyl)-1,3,5-triazin-2-yl]phenyl}carbamoyl)amino]benzamide] are 3 nM, 10 nM, 171 nM, 2.5 nM and 33.5 nM.
Take `C[C@H]1COCCN1c1nc(-c2ccc(NC(=O)Nc3ccc(C(=O)N(C)CCN(C)C)cc3)cc2)nc(N2CCOC[C@@H]2C)n1` [Example 564, 4-{[(4-{4,6-bis[(3S)-3-methylmorpholin-4-yl]-1,3,5-triazin-2-yl}phenyl)carbamoyl]amino}-N-[2-(dimethylamino)ethyl]-N-methylbenzamide]: the IC50 in experiment [1] is 1 nM; in experiment [2] (72 h), 1 nM; in experiment [3] it was 7 nM; in experiment [4], 0.6 nM; in experiment [5] it was 16.5 nM.
Consider `C[C@H]1COCCN1c1nc(-c2ccc(NC(=O)Nc3ccc(C(=O)N4CCN(C)CC4)cc3)cc2)nc(N2CCOC[C@@H]2C)n1` [Example 565, 1-(4-{4,6-bis[(3S)-3-methylmorpholin-4-yl]-1,3,5-triazin-2-yl}phenyl)-3-{4-[(4-methylpiperazin-1-yl)carbonyl]phenyl}urea], for which the IC50 in experiment [1] stood at 1 nM; in experiment [2] (72 h), 9 nM; in experiment [3], 27 nM; in experiment [4] it was 4.1 nM; in experiment [5], 38 nM.
On the same counts, the results for `O=C(Nc1ccncc1)Nc1ccc(-c2nc(N3CCCOCC3)nc(N3CCOCC3)n2)cc1` [Example 566, 1-{4-[4-morpholin-4-yl-6-(1,4-oxazepan-4-yl)-1,3,5-triazin-2-yl]phenyl}-3-pyridin-4-ylurea] are 2 nM, 28 nM, 55 nM, 2.6 nM and 18 nM.
`COC(=O)c1ccc(NC(=O)Nc2ccc(-c3nc(N4CCCOCC4)nc(N4CCOCC4)n3)cc2)cc1` [Example 567, methyl 4-[({4-[4-morpholin-4-yl-6-(1,4-oxazepan-4-yl)-1,3,5-triazin-2-yl]phenyl}carbamoyl)amino]benzoate]: the IC50 is 2 nM in experiment [1]; 106 nM in experiment [2] (MDA-MB-361, 72 h); 130 nM in experiment [3]; 14.5 nM in experiment [4]; 90 nM in experiment [5].
With `CN(C)CCCNC(=O)c1ccc(NC(=O)Nc2ccc(-c3nc(-c4cccs4)nc(N4CCOCC4)n3)cc2)cc1` [Example 570, N-[3-(dimethylamino)propyl]-4-[({4-[4-morpholin-4-yl-6-(2-thienyl)-1,3,5-triazin-2-yl]phenyl}carbamoyl)amino]benzamide], the IC50 in experiment [1] came out at 13 nM; in experiment [2] (72 h) it was 28 nM; in experiment [3], 344 nM; in experiment [4] it was 5.5 nM; in experiment [5] it was 48 nM.
`COCCNC(=O)c1ccc(NC(=O)Nc2ccc(-c3nc(N4CCCOCC4)nc(N4CCOCC4)n3)cc2)cc1` [Example 574, N-(2-methoxyethyl)-4-[({4-[4-morpholin-4-yl-6-(1,4-oxazepan-4-yl)-1,3,5-triazin-2-yl]phenyl}carbamoyl)amino]benzamide]: the IC50 stood at 6 nM in experiment [1]; 6 nM in experiment [2] (72 h); 25 nM in experiment [3]; 1 nM in experiment [4]; 12.5 nM in experiment [5].
Consider `CCN1CCN(C(=O)c2ccc(NC(=O)Nc3ccc(-c4nc(-c5cccs5)nc(N5CCOCC5)n4)cc3)cc2)CC1` [Example 575, 1-{4-[(4-ethylpiperazin-1-yl)carbonyl]phenyl}-3-{4-[4-morpholin-4-yl-6-(2-thienyl)-1,3,5-triazin-2-yl]phenyl}urea], for which the IC50 is 15 nM in experiment [1]; 15 nM in experiment [2] (72 h); 242 nM in experiment [3]; 3 nM in experiment [4]; 19 nM in experiment [5].
As to `O=C(Nc1ccncc1)Nc1ccc(-c2nc(N3CCCCC3)nc(N3CCOCC3)n2)cc1` [Example 592, 1-[4-(4-morpholin-4-yl-6-piperidin-1-yl-1,3,5-triazin-2-yl)phenyl]-3-pyridin-4-ylurea], the IC50 was determined as 9 nM in experiment [1]; 239 nM in experiment [2] (72 h); 718 nM in experiment [3]; 25.5 nM in experiment [4]; 122 nM in experiment [5].
As to `O=C(Nc1ccc(C(=O)O)cc1)Nc1ccc(-c2nc(N3CCCCC3)nc(N3CCOCC3)n2)cc1` [Example 593, 4-({[4-(4-morpholin-4-yl-6-piperidin-1-yl-1,3,5-triazin-2-yl)phenyl]carbamoyl}amino)benzoic acid], the IC50 in experiment [1] was 12 nM; in experiment [2] (MDA-MB-361, 72 h) it was greater than 1000 nM; in experiment [3] it was greater than 1000 nM; in experiment [4], 40 nM; in experiment [5], 143 nM.
Consider `CCN1CCN(C(=O)c2ccc(NC(=O)Nc3ccc(-c4nc(N5CCCCC5)nc(N5CCOCC5)n4)cc3)cc2)CC1` [Example 596, 1-{4-[(4-ethylpiperazin-1-yl)carbonyl]phenyl}-3-[4-(4-morpholin-4-yl-6-piperidin-1-yl-1,3,5-triazin-2-yl)phenyl]urea], for which the IC50 in experiment [1] is 13 nM; in experiment [2] (MDA-MB-361, 72 h), 26 nM; in experiment [3], 155 nM; in experiment [4], 5 nM; in experiment [5], 40.5 nM.
